This note sets out measurements from US9000017B2, “Combinations of imazalil and silver compounds” (Janssen Pharmaceutica NV, priority 2006, dated 2015).

Read-outs that look alike come from different tables or passages of the source.

What all share (experiment): Poison Plate Assay
Assay type in all cases: cell-based

Assay [1] has as its system Pseudomonas aeruginosa. The note with it: Pseudomonas aeruginosa NCIB 8295, ppm total active ingredient, Tryptose Agar, 27° C., one week. The method, then: (§1) [table] […] [table] MIC values (minimum inhibitory concentration in ppm total active ingredient) were noted and synergy was calculated using the Synergy Index method described by Kull et al. (Kull, […], and R. L. Mayer (1961) “Mixtures of quaternary ammonium compounds and long-chain fatty acids as antifungal agents” Applied Microbiology 9: 538-541; also see Zwart Voorspuij, A. J., and […] (1957) “Some aspects of the notions additivity, synergism and antagonism in the simultaneous activity of two antibacterial agents in vitro” Arch. intern. […] Steinberg, D. C. […] Petrocci, H. A. Green, and J. J. Merianos (1977) “Antimicrobial composition” U.S. Pat. […] MIC), • Qa is the concentration of compound A in ppm, in the mixture, which produced an end point (e.g. MIC), • QB is the concentration of compound B in ppm, acting alone, which produced an end point (e.g. MIC), • Qb is the concentration of compound B in ppm, in the mixture, which produced an end point (e.g. MIC). […] When the SI is equal to 1.0, additivity is indicated.

The subject of assay [2] is Rhodoturula rubra. The note with it: 336 h, Rhodoturula rubra B 52183, ppm total active ingredient, PDA, 22° C., two weeks, read-out: MIC-values in ppm (minimum inhibitory concentration). The method, then:
as §1

The test system of assay [3] is Penicillium purpurogenum. The note with it: Penicillium purpurogenum CBS 170.60, ppm total active ingredient, PDA, 22° C., two weeks. The method, then:
as §1

Where [4] appears, read: imazalil with silver perchlorate, label = % imazalil + % silver perchlorate.

In the case of `C=CCOC(Cn1ccnc1)c1ccc(Cl)cc1Cl` (stereo not drawn) [imazalil], the MIC in assay [1] (NCIB8295, 168 h, imazalil with silver nitrate, label = % imazalil + % silver nitrate, read-out: MIC-values in ppm (minimum inhibitory concentration)) came out at 667 µg/mL; in assay [2] (imazalil with silver nitrate, label = % imazalil + % silver nitrate) it was 158 µg/mL; in assay [2] (setting [4]), 119 µg/mL; in assay [3] (CBS170, 336 h, imazalil with silver nitrate, label = % imazalil + % silver nitrate, read-out: MIC-values in ppm (minimum inhibitory concentration)) it was 158 µg/mL. Moreover, the “MIC-values in ppm (minimum inhibitory concentration)” value in assay [1] (setting [4]) amounted to 667 ppm; in assay [3] (setting [4]), 158 ppm.
